Test results taken from patent US9206130B2, “Quinoline derivatives as AXL kinase inhibitors” (Max-Planck-Gesellschaft zur Förderung der Wissenschaften …, priority 2008, dated 2015).

Experiments:
[1] = molecular target: T1, wild type AXL (wtAXL) receptor tyrosine kinase (Homo sapiens, UniProt P30530); experiment: NIH-3T3-AXL cellular tyrosine kinase assay (inhibition of AXL phosphorylation); assay type: cell-based; conditions: AXL phosphorylation in NIH-3T3-AXL (clone 22) cells, serum-depleted, 2 h with compound, immunoprecipitation / anti-phosphotyrosine blot
T1 construct: WtAXL cDNA was cloned into vector pLXSN(ESK) and transfected into Phoenix E packaging cells; expressed in transfected cells; host or cells: NIH3T3 N7 mouse fibroblasts, retrovirally infected (clone 22)
T1 sequence (P30530 26-894): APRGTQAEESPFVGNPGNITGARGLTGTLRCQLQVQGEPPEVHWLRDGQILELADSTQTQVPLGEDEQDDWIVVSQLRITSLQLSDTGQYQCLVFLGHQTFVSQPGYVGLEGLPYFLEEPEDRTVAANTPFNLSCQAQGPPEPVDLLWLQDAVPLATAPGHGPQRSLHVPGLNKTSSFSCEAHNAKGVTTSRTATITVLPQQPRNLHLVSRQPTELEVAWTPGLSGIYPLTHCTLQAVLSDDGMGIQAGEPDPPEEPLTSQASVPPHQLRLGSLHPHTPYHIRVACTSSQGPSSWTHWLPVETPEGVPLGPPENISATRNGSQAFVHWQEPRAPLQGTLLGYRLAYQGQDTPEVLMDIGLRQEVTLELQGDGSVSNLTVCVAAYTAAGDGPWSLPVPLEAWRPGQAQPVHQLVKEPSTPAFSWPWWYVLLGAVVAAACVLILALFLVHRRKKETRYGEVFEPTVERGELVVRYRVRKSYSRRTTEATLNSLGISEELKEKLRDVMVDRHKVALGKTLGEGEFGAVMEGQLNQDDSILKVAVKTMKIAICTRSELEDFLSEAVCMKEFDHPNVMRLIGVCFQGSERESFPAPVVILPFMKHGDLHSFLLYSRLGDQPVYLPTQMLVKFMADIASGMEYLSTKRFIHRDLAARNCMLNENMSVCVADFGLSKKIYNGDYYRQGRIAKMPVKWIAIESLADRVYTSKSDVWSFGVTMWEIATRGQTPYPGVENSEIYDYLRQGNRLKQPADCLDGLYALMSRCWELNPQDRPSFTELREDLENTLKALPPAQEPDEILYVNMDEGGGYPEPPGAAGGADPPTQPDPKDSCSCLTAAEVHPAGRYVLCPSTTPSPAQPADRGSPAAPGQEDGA
Summary of the method: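 NIH3T3 clones stably expressing human wtAXL (puromycin-selected) were exposed to serially diluted compounds for 2 h. AXL was immunoprecipitated from lysates with anti-AXL antibody, and phosphorylation detected by anti-phosphotyrosine (4G10) western blot with ECL.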

IC50 [1] [µM] | melting point [°C] | Structure (SMILES)
> 10 | 236 to 238 | COc1cc2nccc(Oc3ccc(NS(=O)(=O)c4ccc(C(F)(F)F)cc4Br)c(F)c3)c2cc1OC [Example A45, 2-Bromo-N-[4-(6,7-dimethoxy-quinolin-4-yloxy)-2-fluoro-phenyl]-4-trifluoromethyl-benzenesulfonamide]
> 3 | 178 to 180 | COc1cc2nccc(Oc3ccc(NS(=O)(=O)c4cccc(-c5ccccc5)c4)cc3C)c2cc1OC [Example A75, Biphenyl-3-sulfonic acid [4-(6,7-dimethoxy-quinolin-4-yloxy)-3-methyl-phenyl]-amide]
2.9 | 218 to 219 | COc1cc2nccc(Oc3ccc(NS(=O)(=O)c4ccc(Cl)cc4F)c(F)c3)c2cc1OC [Example A13, 4-Chloro-N-[4-(6,7-dimethoxy-quinolin-4-yloxy)-2-fluoro-phenyl]-2-fluoro-benzenesulfonamide]
> 10 | 226 to 227 | COc1ccc(S(=O)(=O)Nc2ccc(Oc3ccnc4cc(OC)c(OC)cc34)cc2)cc1Cl [Example A67, 3-Chloro-N-[4-(6,7-dimethoxy-quinolin-4-yloxy)-phenyl]-4-methoxy-benzenesulfonamide]
> 10 | 233 to 235 | COc1cc2nccc(Oc3ccc(NS(=O)(=O)c4ccc(OC)c5ccccc45)cc3C)c2cc1OC [Example A130, 4-Methoxy-naphthalene-1-sulfonic acid [4-(6,7-dimethoxy-quinolin-4-yloxy)-3-methyl-phenyl]-amide]
> 10 | 242 to 244 | Cc1cc(Oc2ccc(NS(=O)(=O)c3csc4ccccc34)c(F)c2)c2cccc(C(F)(F)F)c2n1 [Example C18, Benzo[b]thiophene-3-sulfonic acid [2-fluoro-4-(2-methyl-8-trifluoromethyl-quinolin-4-yloxy)phenyl]-amide]
> 10 | 135 to 137 | COc1cc2nccc(Oc3ccc(NS(=O)(=O)c4cccc(-c5ncccn5)c4)cc3OC)c2cc1OC [Example A143, N-[4-(6,7-Dimethoxy-quinolin-4-yloxy)-3-methoxy-phenyl]-3-pyrimidin-2-yl-benzenesulfonamide]
0.35 | 105 to 107 | COc1cc2c(Oc3ccc(NS(=O)(=O)c4cccc(-c5ccccc5)c4)c(C)c3)ccnc2cc1OCCN1CCOCC1 [Example D07, Biphenyl-3-sulfonic acid {4-[6-methoxy-7-(2-morpholin-4-yl-ethoxy)-quinolin-4-yloxy]-2-methyl-phenyl}-amide]
0.13 | 203 to 204 | COc1cc2nccc(Oc3ccc(NS(=O)(=O)c4ccccc4OC(F)(F)F)cc3F)c2cc1OC [Example A126, N-[4-(6,7-Dimethoxy-quinolin-4-yloxy)-3-fluoro-phenyl]-2-trifluoromethoxy-benzenesulfonamide]
> 10 | 150 to 152 | Cc1cc(Oc2ccc(NS(=O)(=O)c3cccc(C(F)(F)F)c3)c(F)c2)c2cc(F)ccc2n1 [Example B8, N-[2-Fluoro-4-(6-fluoro-2-methyl-quinolin-4-yloxy)-phenyl]-3-trifluoromethyl-benzenesulfonamide]
0.58 | 175 to 176 | COc1cc2nccc(Oc3ccc(NS(=O)(=O)CC(C)C)c(F)c3)c2cc1OC [Example A72, 2-Methyl-propane-1-sulfonic acid [4-(6,7-dimethoxy-quinolin-4-yloxy)-2-fluoro-phenyl]-amide]
> 10 | 124 to 126 | COc1cc2nccc(Oc3ccc(NS(=O)(=O)c4cccc5ccccc45)cc3OC)c2cc1OC [Example A140, Naphthalene-1-sulfonic acid [4-(6,7-dimethoxy-quinolin-4-yloxy)-3-methoxy-phenyl]-amide]
> 10 | 199 to 201 | COc1cc2nccc(Oc3ccc(NS(=O)(=O)c4ccc(-c5ccccc5)cc4)c(F)c3)c2cc1OC [Example A136, Biphenyl-4-sulfonic acid [4-(6,7-dimethoxy-quinolin-4-yloxy)-2-fluoro-phenyl]-amide]
0.3 | 212 to 214 | COc1cc2c(Oc3ccc(NS(=O)(=O)c4ccc(Cl)cc4F)cc3F)ccnc2cc1OCCN1CCOCC1 [Example D12, 4-Chloro-2-fluoro-N-{3-fluoro-4-[6-methoxy-7-(2-morpholin-4-yl-ethoxy)-quinolin-4-yloxy]-phenyl}-benzenesulfonamide]
< 1 | 192 to 193 | COc1c(Cl)cc(Cl)cc1S(=O)(=O)Nc1ccc(Oc2cc(C)nc3ccc(F)cc23)cc1 [Example B11, 3,5-Dichloro-N-[4-(6-fluoro-2-methyl-quinolin-4-yloxy)-phenyl]-2-methoxy-benzenesulfonamide]
0.378 | 104 to 106 | CCCCS(=O)(=O)Nc1ccc(Oc2ccnc3cc(OCCCN4CCCC(C)C4)c(OC)cc23)c(F)c1 (centres unmarked) [Example D25, Butane-1-sulfonic acid (3-fluoro-4-{6-methoxy-7-[3-(3-methyl-piperidin-1-yl)-propoxy]-quinolin-4-yloxy}-phenyl)-amide]
1.18 | 99 to 101 | COc1cc2nccc(Oc3ccc(NS(=O)(=O)c4ccc(Cl)cc4F)cc3F)c2cc1OC [Example A110, 4-Chloro-N-[4-(6,7-dimethoxy-quinolin-4-yloxy)-3-fluoro-phenyl]-2-fluoro-benzenesulfonamide]
> 1 | 189 to 191 | COc1cc2c(Oc3ccc(NS(=O)(=O)c4ccc(F)cc4F)cc3F)ccnc2cc1OCCN1CCOCC1 [Example D28, 2,4-Difluoro-N-{3-fluoro-4-[6-methoxy-7-(2-morpholin-4-yl-ethoxy)-quinolin-4-yloxy]-phenyl}-benzenesulfonamide]
> 10 | 193 to 195 | Cc1cc(Oc2ccc(NS(=O)(=O)c3ccc(OCc4c(C)noc4C)cc3)cc2F)c2cccc(C(F)(F)F)c2n1 [Example C14, 4-(3,5-Dimethyl-isoxazol-4-ylmethoxy)-N-[3-fluoro-4-(2-methyl-8-trifluoromethyl-quinolin-4-yloxy)-phenyl]-benzenesulfonamide]
> 10 | 171 to 173 | Cc1cc(Oc2ccc(NS(=O)(=O)c3c(Cl)cccc3Cl)c(F)c2)c2cccc(C(F)(F)F)c2n1 [Example C06, 2,6-Dichloro-N-[2-fluoro-4-(2-methyl-8-trifluoromethyl-quinolin-4-yloxy)-phenyl]-benzenesulfonamide]
2.54 | 224 to 225 | COc1cccc(S(=O)(=O)Nc2ccc(Oc3ccnc4cc(OC)c(OC)cc34)cc2F)c1 [Example A27, N-[4-(6,7-Dimethoxy-quinolin-4-yloxy)-2-fluoro-phenyl]-3-methoxy-benzenesulfonamide]
0.046 | 110 to 112 | COc1cc2c(Oc3ccc(NS(=O)(=O)c4ccccc4C(F)(F)F)cc3F)ccnc2cc1OCCCN1CCC(C)CC1 [Example D17, N-(3-Fluoro-4-{6-methoxy-7-[3-(4-methyl-piperidin-1-yl)-propoxy]-quinolin-4-yloxy}-phenyl)-2-trifluoromethyl-benzenesulfonamide]
